Measurements from ChEMBL document CHEMBL1201862, “PubChem BioAssay data set” (2004).
The source made the active and inactive calls.

Experiments:
[1] = target: Mitochondrial peptide methionine sulfoxide reductase (Bos taurus, UniProt P54149); assay: Absorbance-based biochemical high throughput dose response assay for activators of Methionine sulfoxide reductase A (MsrA).; type: functional
[2] = target: DNA dC->dU-editing enzyme APOBEC-3A (Homo sapiens, UniProt P31941); assay: SAR analysis of small molecule inhibitors of APOBEC3A DNA Deaminase via a fluorescence-based single-stranded DNA deaminase assay.; type: functional; details: read-out: IC50_Mean
DNA dC->dU-editing enzyme APOBEC-3A, sequence (P31941 whole entry): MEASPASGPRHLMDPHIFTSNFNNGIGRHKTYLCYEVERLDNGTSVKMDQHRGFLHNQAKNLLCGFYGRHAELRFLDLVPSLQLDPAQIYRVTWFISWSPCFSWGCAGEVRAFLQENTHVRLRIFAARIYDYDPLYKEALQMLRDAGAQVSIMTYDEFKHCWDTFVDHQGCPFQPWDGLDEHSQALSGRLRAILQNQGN

[3] = target: DNA dC->dU-editing enzyme APOBEC-3G (Homo sapiens, UniProt Q9HC16); assay: inhibition of APOBEC3G ssDNA deamination – biochemical, fluorescence, single-stranded DNA substrate, SAR follow-up (AID 602136); type: functional; details: read-out: IC50_Mean
DNA dC->dU-editing enzyme APOBEC-3G, sequence (Q9HC16 whole entry): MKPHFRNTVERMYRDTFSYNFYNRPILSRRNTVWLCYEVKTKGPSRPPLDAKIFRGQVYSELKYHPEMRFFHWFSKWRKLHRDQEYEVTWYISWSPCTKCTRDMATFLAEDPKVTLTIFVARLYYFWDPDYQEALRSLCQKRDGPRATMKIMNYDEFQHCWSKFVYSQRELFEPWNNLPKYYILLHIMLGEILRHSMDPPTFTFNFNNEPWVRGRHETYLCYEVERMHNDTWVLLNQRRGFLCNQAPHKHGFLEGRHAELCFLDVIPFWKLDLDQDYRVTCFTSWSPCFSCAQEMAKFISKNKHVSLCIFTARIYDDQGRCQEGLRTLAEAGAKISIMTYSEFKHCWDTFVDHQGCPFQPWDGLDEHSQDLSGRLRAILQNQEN

[4] = target: ATP-dependent translocase ABCB1 (Homo sapiens, UniProt P08183); assay: inhibition of P-gp mediated JC-1 efflux – Jurkat-DNR cells, flow cytometry, dose response (AID 1689); type: functional
ATP-dependent translocase ABCB1, sequence (P08183 whole entry): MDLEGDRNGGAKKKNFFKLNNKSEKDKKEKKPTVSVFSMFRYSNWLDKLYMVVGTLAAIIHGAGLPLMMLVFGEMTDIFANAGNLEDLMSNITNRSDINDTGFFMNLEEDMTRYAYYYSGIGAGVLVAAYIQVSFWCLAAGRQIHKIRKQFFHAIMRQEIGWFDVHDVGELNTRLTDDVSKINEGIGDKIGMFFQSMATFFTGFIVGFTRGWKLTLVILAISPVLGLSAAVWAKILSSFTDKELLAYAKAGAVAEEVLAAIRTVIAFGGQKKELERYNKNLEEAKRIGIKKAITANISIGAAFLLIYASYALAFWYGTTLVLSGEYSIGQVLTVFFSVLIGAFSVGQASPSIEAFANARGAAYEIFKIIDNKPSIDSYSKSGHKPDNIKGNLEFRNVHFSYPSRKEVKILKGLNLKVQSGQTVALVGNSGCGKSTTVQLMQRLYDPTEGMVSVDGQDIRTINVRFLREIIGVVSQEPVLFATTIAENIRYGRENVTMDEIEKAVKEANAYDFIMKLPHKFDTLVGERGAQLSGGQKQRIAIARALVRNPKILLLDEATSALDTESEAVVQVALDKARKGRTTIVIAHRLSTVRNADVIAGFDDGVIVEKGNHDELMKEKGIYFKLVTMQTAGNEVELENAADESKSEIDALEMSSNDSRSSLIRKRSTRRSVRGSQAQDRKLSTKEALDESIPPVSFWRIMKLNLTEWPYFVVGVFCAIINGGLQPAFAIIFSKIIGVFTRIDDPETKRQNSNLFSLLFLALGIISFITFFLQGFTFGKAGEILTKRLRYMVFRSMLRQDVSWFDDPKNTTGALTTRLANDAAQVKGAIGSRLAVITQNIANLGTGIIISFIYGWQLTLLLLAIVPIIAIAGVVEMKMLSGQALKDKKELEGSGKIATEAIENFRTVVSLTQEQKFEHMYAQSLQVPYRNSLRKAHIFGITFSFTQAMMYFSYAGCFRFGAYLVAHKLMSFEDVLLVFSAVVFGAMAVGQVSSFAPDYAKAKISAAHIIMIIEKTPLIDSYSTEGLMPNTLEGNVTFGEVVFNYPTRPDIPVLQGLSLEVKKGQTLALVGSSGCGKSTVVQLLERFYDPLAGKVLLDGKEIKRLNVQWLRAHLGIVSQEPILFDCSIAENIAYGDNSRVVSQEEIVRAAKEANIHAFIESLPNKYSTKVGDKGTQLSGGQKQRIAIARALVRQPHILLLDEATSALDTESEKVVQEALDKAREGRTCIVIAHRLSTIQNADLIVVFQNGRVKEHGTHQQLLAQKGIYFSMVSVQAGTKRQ

[5] = bead-based luminescence quenchers, dual-tagged ARNT – biochemical, AlphaScreen, cherry-pick, artefact control for ARNT-TACC3 interaction inhibitor project, dose response (AID 651705); type: functional;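 further: AlphaScreen bead proximity signal that flags compounds interfering with the detection technology; potency reflects signal decrease which marks the compound as an assay artifact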
[6] = Trypanosoma cruzi growth suppression in host cells – NIH3T3 host cells, beta-gal luminescence, confirmation (AID 2044); type: functional, cell-based;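 further: intracellular parasites grown in NIH/3T3 mouse fibroblasts as host cells; luminescent beta-galactosidase reporter signal from transgenic T. cruzi replicating inside host cells; inhibitors lower the luminescence signal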
[7] = target: T1, Ubiquitin-conjugating enzyme E2 N (Homo sapiens, UniProt P61088); type: functional;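 further: Dose-response confirmation in a TR-FRET assay detecting UBC13-driven polyubiquitin chain formation, inhibition measured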
T1 sequence (P61088 whole entry): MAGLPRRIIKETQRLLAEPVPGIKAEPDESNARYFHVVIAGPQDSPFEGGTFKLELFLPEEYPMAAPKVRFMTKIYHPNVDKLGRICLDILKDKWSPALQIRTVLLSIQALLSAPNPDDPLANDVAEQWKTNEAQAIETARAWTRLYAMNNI

[8] = NIH3T3 cell viability loss – ATP luminescence, mouse fibroblasts, counter-screen, dose response (AID 2010); type: functional, cell-based;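 further: cells exposed to compound for about 90 hours before reading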
[9] = target: Neurotensin receptor type 1 (Homo sapiens, UniProt P30989); type: functional;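 further: Image-based confirmatory dose-response assay measuring agonist activity at NTR1; NTR1-expressing U2OS osteosarcoma cells imaged for beta-arrestin GFP spot formation; agonist potency where compounds increase beta-arrestin recruitment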
Neurotensin receptor type 1, sequence (P30989 whole entry): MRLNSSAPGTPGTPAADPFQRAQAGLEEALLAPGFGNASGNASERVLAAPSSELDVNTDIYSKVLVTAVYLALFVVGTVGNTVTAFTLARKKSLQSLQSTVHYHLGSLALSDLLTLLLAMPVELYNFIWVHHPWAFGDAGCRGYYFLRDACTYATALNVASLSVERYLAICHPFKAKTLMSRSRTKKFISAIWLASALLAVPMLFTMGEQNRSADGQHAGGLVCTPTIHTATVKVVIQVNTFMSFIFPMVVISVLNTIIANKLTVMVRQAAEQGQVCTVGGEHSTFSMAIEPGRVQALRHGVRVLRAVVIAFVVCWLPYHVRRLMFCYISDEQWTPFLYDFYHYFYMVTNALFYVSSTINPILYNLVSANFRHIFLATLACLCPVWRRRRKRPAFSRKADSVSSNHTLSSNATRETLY

Melanocortin receptor 4 = Melanocortin receptor 4 (Homo sapiens, UniProt P32245); type: functional, cell-based;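 further: Cell-based assay with luminescence read-out, confirmatory dose-response testing for agonist activity of biased ligands at MC4R; human U2OS cells with tagged receptor and beta-arrestin; potency of agonists that increase receptor coupling to beta-arrestin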
Melanocortin receptor 4, sequence (P32245 whole entry, the tested form may be a part): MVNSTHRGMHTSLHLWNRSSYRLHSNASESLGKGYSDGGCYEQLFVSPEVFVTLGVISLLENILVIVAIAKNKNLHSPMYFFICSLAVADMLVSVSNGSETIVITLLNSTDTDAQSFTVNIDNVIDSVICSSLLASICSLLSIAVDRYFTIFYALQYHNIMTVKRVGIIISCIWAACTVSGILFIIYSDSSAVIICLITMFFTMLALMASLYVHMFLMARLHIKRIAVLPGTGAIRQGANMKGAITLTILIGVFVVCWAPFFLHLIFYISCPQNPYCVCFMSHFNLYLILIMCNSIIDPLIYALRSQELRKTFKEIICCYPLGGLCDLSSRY

[10] = inhibition of ARNT PAS-B/TACC3 complex formation – biochemical, AlphaScreen, cherry-picked samples, confirmation (AID 651703); type: functional, Homo sapiens;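 further: His-tagged ARNT PAS-B domain paired with GST-TACC3 E629A dimer coactivator fragment; potency of inhibitors that break up the complex and lower AlphaScreen signal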
[11] = SAR analysis of small molecule activators of Apaf-1 using a LZ-Caspase-9/Caspase-3 Fluorescent Selectivity assay - Set 2.; type: functional; details: read-out: EC50_Mean
[12] = target: T2, Apoptotic protease-activating factor 1 (Homo sapiens, UniProt O14727); assay: SAR analysis of small molecule Activators of Apaf-1 in a Fluorescent assay - set 2.; type: functional; details: read-out: EC50_Mean
T2 sequence (O14727 whole entry): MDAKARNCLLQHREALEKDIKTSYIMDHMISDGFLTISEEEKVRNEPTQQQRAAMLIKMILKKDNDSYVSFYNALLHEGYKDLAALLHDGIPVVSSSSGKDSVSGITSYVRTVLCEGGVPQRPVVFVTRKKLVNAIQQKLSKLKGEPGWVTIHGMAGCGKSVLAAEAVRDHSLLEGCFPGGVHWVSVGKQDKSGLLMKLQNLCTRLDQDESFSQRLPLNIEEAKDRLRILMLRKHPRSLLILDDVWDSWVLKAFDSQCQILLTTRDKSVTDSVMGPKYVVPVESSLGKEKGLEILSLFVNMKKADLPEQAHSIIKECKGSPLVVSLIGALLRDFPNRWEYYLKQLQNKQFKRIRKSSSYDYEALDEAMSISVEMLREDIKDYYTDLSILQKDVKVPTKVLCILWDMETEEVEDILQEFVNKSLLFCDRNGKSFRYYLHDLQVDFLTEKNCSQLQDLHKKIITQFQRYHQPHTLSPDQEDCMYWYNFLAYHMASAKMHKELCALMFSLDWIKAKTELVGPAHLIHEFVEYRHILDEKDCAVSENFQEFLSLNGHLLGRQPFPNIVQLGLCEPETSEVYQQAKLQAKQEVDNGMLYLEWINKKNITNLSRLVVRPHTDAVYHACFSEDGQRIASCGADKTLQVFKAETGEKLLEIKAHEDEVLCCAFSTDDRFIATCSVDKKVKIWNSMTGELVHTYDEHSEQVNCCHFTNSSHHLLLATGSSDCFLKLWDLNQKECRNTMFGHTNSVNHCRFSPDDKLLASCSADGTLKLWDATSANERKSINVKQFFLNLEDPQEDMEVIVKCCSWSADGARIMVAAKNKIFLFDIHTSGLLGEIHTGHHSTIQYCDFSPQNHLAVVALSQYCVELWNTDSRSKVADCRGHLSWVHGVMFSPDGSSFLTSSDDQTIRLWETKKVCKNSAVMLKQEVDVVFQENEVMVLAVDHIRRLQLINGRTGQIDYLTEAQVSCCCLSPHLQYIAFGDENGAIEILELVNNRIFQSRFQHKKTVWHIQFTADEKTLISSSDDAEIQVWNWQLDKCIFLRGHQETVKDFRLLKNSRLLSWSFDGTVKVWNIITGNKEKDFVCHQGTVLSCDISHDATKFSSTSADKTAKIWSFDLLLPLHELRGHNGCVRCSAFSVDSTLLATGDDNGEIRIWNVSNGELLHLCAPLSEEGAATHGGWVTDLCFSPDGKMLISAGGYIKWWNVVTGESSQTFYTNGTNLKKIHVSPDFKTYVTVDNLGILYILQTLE

[13] = target: Serine/threonine-protein kinase pim-1 (Homo sapiens, UniProt P11309); type: functional
Serine/threonine-protein kinase pim-1, sequence (P11309 whole entry): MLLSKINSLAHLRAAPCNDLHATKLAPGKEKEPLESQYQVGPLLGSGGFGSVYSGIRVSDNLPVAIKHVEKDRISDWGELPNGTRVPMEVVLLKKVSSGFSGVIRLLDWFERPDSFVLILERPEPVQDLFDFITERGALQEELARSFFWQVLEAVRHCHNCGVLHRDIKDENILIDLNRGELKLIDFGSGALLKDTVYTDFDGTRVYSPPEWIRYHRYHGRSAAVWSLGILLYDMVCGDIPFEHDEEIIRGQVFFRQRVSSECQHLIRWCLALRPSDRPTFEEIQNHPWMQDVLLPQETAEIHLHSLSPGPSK

[14] = target: T2, Apoptotic protease-activating factor 1; assay: SAR analysis of small molecule Activators of Apaf-1 in a Fluorescent assay.; type: functional; details: read-out: EC50_Mean

Mitochondrial peptide methionine sulfoxide reductase, sequence (P54149 whole entry): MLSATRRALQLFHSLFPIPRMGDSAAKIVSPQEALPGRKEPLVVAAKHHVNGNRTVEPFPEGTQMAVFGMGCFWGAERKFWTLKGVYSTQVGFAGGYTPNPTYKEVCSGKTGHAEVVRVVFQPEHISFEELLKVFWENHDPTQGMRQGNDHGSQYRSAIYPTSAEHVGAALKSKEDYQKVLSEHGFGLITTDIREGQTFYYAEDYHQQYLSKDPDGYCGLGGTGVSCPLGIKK

For `CN(CC(=O)Nc1ccccc1N1CCOCC1)S(=O)(=O)c1ccc(Cl)cc1`, the EC50 [1] was > 104 µM (inactive).

For `Cc1cc(Cl)cc2c1N[C@H](c1ccncc1)C1CC=CC21` (stereo not given in full), the IC50 [2] was > 99 µM (inactive) and the IC50 [3] was > 99 µM (inactive).

For `CCCCn1c(O)c(/N=N/c2ccccn2)c2ccccc21`, the EC50 [4] was 23.9 µM (inactive).

For `Nc1nc(CN2CCCCCC2)nc(Nc2ccccc2)n1`, the AC50 [5] was 133 µM (active).

For `CCCOC(=O)c1cccc(Nc2nc(-c3cccnc3)nc3ccccc23)c1`, the EC50 [6] was 0.534 µM (active), the IC50 [7] was > 20 µM (inactive) and the EC50 [8] was 9.22 µM (active). For the same compound, the EC50 [9] was > 40 µM (inactive) and the EC50 (Melanocortin receptor 4) was > 89.3 µM (inactive).

With `O=C1c2cccc3cccc(c23)C(=O)N1CCCCCc1nnc(S)o1` the AC50 [10] was 102 µM (active).

With `O=C(O)C1CC(c2cccc(Br)c2)=NO1` (stereo not given) the EC50 [11] was > 100 µM (inactive) and the EC50 [12] was > 100 µM (inactive).

For `Cc1ccc2c(Nc3cc(OCc4ccccc4Br)ccc3Sc3ccc(O)cc3)ncnc2n1`, the Ki [13] was 5.01 µM (active).

For `COc1ccc(C)cc1NC(=O)CCS(=O)(=O)c1ccc2c(c1)CC(C)N2C(=O)C1CC1` (stereo not given), the EC50 [14] was > 100 µM (inactive).
